From ChEMBL document CHEMBL1806404, “Synthesis, molecular modeling and biological evaluation of β-ketoacyl-acyl carrier protein synthase III (FabH) as novel antibacterial agents” (Bioorg Med Chem, 2011)
pIC50, pKi: −log10 of the molar value. Values after ≈ are worked out from the molar mass of the structure shown.

Assays:
Escherichia coli = test: Antibacterial activity against Escherichia coli ATCC35218 after 24 hrs by MTT assay; assay type: functional; conditions: ATCC35218, 24 h
Pseudomonas aeruginosa = test: Antibacterial activity against Pseudomonas aeruginosa ATCC13525 after 24 hrs by MTT assay; assay type: functional; conditions: ATCC13525, 24 h
Bacillus subtilis = test: Antibacterial activity against Bacillus subtilis ATCC6633 after 24 hrs by MTT assay; assay type: functional; conditions: ATCC6633, 24 h
Staphylococcus aureus = test: Antibacterial activity against Staphylococcus aureus ATCC6538 after 24 hrs by MTT assay; assay type: functional; conditions: ATCC6538, 24 h
[1] = target: T1, 3-oxoacyl-[acyl-carrier-protein] synthase 3 (Escherichia coli, UniProt C3TDZ2); test: Inhibition of N-terminal His-tagged Escherichia coli FabH expressed in Escherichia coli BL21 (DE3) using [3H]acetyl-coA after 25 mins by liquid scintillation counting
T1 sequence (C3TDZ2 whole entry): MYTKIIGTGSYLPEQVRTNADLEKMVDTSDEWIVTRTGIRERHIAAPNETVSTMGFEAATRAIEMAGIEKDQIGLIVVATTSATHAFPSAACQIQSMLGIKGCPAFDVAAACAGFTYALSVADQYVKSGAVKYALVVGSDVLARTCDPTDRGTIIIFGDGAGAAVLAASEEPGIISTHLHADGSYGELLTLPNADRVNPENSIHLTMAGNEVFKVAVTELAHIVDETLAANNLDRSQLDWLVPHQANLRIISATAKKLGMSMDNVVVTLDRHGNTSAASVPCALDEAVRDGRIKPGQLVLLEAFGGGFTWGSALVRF

[2] = Toxicity in erythrocytes assessed as hemolytic activity; assay type: cell-based; conditions: erythrocyte

Compound | MIC (Escherichia coli) [µg/mL] | MIC (Pseudomonas aeruginosa) [µg/mL] | MIC (Bacillus subtilis) [µg/mL] | MIC (Staphylococcus aureus) [µg/mL] | pIC50 [1] | MHC [2] [mg/mL] | pKi [1]
Cc1ncc([N+](=O)[O-])n1CC(C)OC(=O)/C=C/c1cccc2ccccc12 (stereo unspecified) | 25 (≈ 68.4 µM) | 50 (≈ 137 µM) | 25 (≈ 68.4 µM) | 50 (≈ 137 µM) | 4.31 | > 10 | –
Cc1ncc([N+](=O)[O-])n1CC(C)OC(=O)/C=C/c1ccccc1Br (stereo unspecified) | 25 (≈ 63.4 µM) | 25 (≈ 63.4 µM) | 50 (≈ 127 µM) | 25 (≈ 63.4 µM) | 4.40 | > 10 | –
COc1ccccc1/C=C/C(=O)OC(C)Cn1c([N+](=O)[O-])cnc1C (stereo unspecified) | > 100 | > 100 | > 100 | > 100 | – | – | 11.75
Cc1ncc([N+](=O)[O-])n1CC(C)OC(=O)/C=C/c1cccc(F)c1 (stereo unspecified) | 3.13 (≈ 9.39 µM) | 3.13 (≈ 9.39 µM) | 6.25 (≈ 18.8 µM) | 6.25 (≈ 18.8 µM) | 5.09 | > 10 | –
COc1cccc(/C=C/C(=O)OC(C)Cn2c([N+](=O)[O-])cnc2C)c1 (stereo unspecified) | > 100 | > 100 | > 100 | > 100 | – | – | 11.56
Cc1ncc([N+](=O)[O-])n1CC(C)OC(=O)/C=C/c1ccccc1F (stereo unspecified) | > 100 | > 100 | > 100 | > 100 | – | – | –
O=C(O)/C=C/c1ccccc1 [CINNAMIC ACID] | – | – | – | – | 4.36 | > 10 | –
Cc1ncc([N+](=O)[O-])n1CC(C)OC(=O)/C=C/c1ccc2ccccc2c1 (stereo unspecified) | 50 (≈ 137 µM) | 50 (≈ 137 µM) | 50 (≈ 137 µM) | 100 (≈ 274 µM) | – | – | –
Cc1ncc([N+](=O)[O-])n1CC(C)OC(=O)/C=C/c1ccc(Br)cc1 (stereo unspecified) | 6.25 (≈ 15.9 µM) | 6.25 (≈ 15.9 µM) | 3.13 (≈ 7.94 µM) | 3.13 (≈ 7.94 µM) | 4.81 | > 10 | –
Cc1ncc([N+](=O)[O-])n1CC(C)OC(=O)/C=C/c1ccc(OCc2ccccc2)cc1 (stereo unspecified) | 3.13 (≈ 7.43 µM) | 6.25 (≈ 14.8 µM) | 6.25 (≈ 14.8 µM) | 3.13 (≈ 7.43 µM) | 5.17 | > 10 | –
Cc1ccc(/C=C/C(=O)OC(C)Cn2c([N+](=O)[O-])cnc2C)cc1 (stereo unspecified) | 100 (≈ 304 µM) | 50 (≈ 152 µM) | > 100 | > 100 | – | – | –
Cc1ncc([N+](=O)[O-])n1CC(C)OC(=O)/C=C/c1cccc(Br)c1 (stereo unspecified) | 12.5 (≈ 31.7 µM) | 12.5 (≈ 31.7 µM) | 25 (≈ 63.4 µM) | 12.5 (≈ 31.7 µM) | 4.56 | > 10 | –
COc1ccc(/C=C/C(=O)OC(C)Cn2c([N+](=O)[O-])cnc2C)cc1 (stereo unspecified) | > 100 | > 100 | 50 (≈ 145 µM) | 50 (≈ 145 µM) | – | – | –
Cc1ncc([N+](=O)[O-])n1CC(C)O (stereo unspecified) [SECNIDAZOLE] | – | – | – | – | 4.55 | > 10 | –
Cc1ncc([N+](=O)[O-])n1CC(C)OC(=O)/C=C/c1cccs1 (stereo unspecified) | 50 (≈ 156 µM) | 50 (≈ 156 µM) | > 100 | 50 (≈ 156 µM) | – | – | –
Cc1ncc([N+](=O)[O-])n1CC(C)OC(=O)/C=C/c1ccc(-c2ccccc2)cc1 (stereo unspecified) | 1.56 (≈ 3.99 µM) | 3.13 (≈ 8 µM) | 6.25 (≈ 16 µM) | 1.56 (≈ 3.99 µM) | 5.60 | > 10 | –
Cc1ncc([N+](=O)[O-])n1CC(C)OC(=O)/C=C/c1ccc(Cl)cc1 (stereo unspecified) | 12.5 (≈ 35.7 µM) | 25 (≈ 71.5 µM) | 12.5 (≈ 35.7 µM) | 25 (≈ 71.5 µM) | 4.46 | > 10 | –
Cc1ncc([N+](=O)[O-])n1CC(C)OC(=O)/C=C/c1ccccc1 (stereo unspecified) | > 100 | > 100 | > 100 | > 100 | – | – | 11.88
Cc1ncc([N+](=O)[O-])n1CC(C)OC(=O)/C=C/c1ccc(F)cc1 (stereo unspecified) | 50 (≈ 150 µM) | 50 (≈ 150 µM) | 50 (≈ 150 µM) | 100 (≈ 300 µM) | – | – | –
NC[C@H]1O[C@H](O[C@H]2[C@H](O)[C@@H](O[C@H]3O[C@H](CO)[C@@H](O)[C@H](N)[C@H]3O)[C@H](N)C[C@@H]2N)[C@H](O)[C@@H](O)[C@@H]1O [KANAMYCIN] | 3.13 (≈ 6.46 µM) | 3.13 (≈ 6.46 µM) | 1.56 (≈ 3.22 µM) | 1.56 (≈ 3.22 µM) | – | – | –
Cc1ncc([N+](=O)[O-])n1CC(C)OC(=O)/C=C/c1ccc(Cl)cc1Cl (stereo unspecified) | 3.13 (≈ 8.15 µM) | 6.25 (≈ 16.3 µM) | 6.25 (≈ 16.3 µM) | 12.5 (≈ 32.5 µM) | 5.03 | > 10 | –
Cc1ncc([N+](=O)[O-])n1CC(C)OC(=O)/C=C/c1ccccc1Cl (stereo unspecified) | 50 (≈ 143 µM) | 25 (≈ 71.5 µM) | 50 (≈ 143 µM) | 50 (≈ 143 µM) | – | – | –
Cc1ncc([N+](=O)[O-])n1CC(C)OC(=O)/C=C/c1ccc(N(C)C)cc1 (stereo unspecified) | 6.25 (≈ 17.4 µM) | 6.25 (≈ 17.4 µM) | 12.5 (≈ 34.9 µM) | 6.25 (≈ 17.4 µM) | 4.70 | > 10 | –
